Data on two molecules can be found in patent publication US20110268721A1, “Therapy Regimens, Dosing Regimens And Stable Medicaments For The Treatment Of Pompe Disease” (Amicus Therapeutics, Inc., priority 2008, published 2011).

Where a name gives a salt, the structure may show the parent alone.

One data set concerns GAA KO mouse. The data set can be described thus: GAA activity in heart and diaphragm tissue of GAA KO mouse, rhGAA with or without 1-DNJ-HCl. In kind it is in vivo. The protocol: Three groups of GAA KO Mice were administered one of the following formulations: […]
(1) Control (No Treatment);
Heart and Diaphragm tissue homogenates were harvested and rhGAA activity was measured using the fluorogenic substrate (4-MUG).

For data set [1], the target named is T1, recombinant human GAA (Myozyme®, Genzyme Corp.) (Homo sapiens, UniProt P10253).
T1 construct: purchased Genzyme Corp
The data set is described as follows: SYPRO Orange protein folding monitored at 37° C. over 24 hours. Conditions: plasma pH (7.4), 100 μM 1-DNJ-HCl. In kind it is binding. The method, then:
FIG. 2B depicts a parallel SYPRO Orange thermal stability experiment to determine if the loss of enzyme activity shown in FIG. 2A, particularly the loss of Myozyme activity at ER pH (7.4), correlates with protein unfolding and denaturation.
In order to determine if loss of initial enzyme activity is correlated to failure to maintain a proper conformation, a SYPRO Orange thermal stability experiment was performed on the samples above as generally described in Example 1. […] Based on this experiment, the % of GAA folded was estimated and plotted in FIG. 2B.

Data set [2] concerns the target T1, recombinant human GAA (Myozyme®, Genzyme Corp.). The data set can be described thus: SYPRO Orange thermal stability assay (heat-induced denaturation). The data set is classed as binding. The source says:
The thermal stability assay utilizes heat to induce protein denaturation, which is monitored using a SYPRO Orange dye that fluoresces upon binding to hydrophobic amino acids (which are not exposed in a folded protein).
FIG. 5 depict the results of a thermal stability assay that utilizes heat to induce protein denaturation, which is monitored using a SYPRO Orange dye that fluoresces upon binding to hydrophobic amino acids (which are not exposed in a folded protein).
Denaturation is monitored using a SYPRO Orange dye that fluoresces upon binding to hydrophobic amino acids (which are not exposed in a folded protein).
The thermal stability was performed at pH 7.4 for two formulations, which corresponds to the pH of the ER.
A thermal stability experiment as generally described in Example 1 was performed on four compositions:
(1) Myozyme only composition;

The target in data set [3] is T2, GAA in cell lines derived from late-onset Pompe patients with the IVS 1 (−13 T>G) splicing defect (Homo sapiens, UniProt P10253).
T2 construct: endogenous in cells
The data set is described as follows: GAA levels in cell lines derived from late-onset Pompe patients. The data set is classed as cell-based. Conditions: IVS 1 (−13 T>G) splicing mutation.

For a further data set, the target named is T3, rhGAA (Myozyme™) (Homo sapiens, UniProt P10253).
T3 construct: purchased Genzyme Corp; host or cells: Chinese hamster ovary cell line
The data set can be described thus: rhGAA enzyme inactivation in citrate anti-coagulated whole blood at 37° C. (4-MUG). In kind it is biochemical. The protocol:
Aliquots were collected at 0, 2, 4, 8 and 24 hrs and centrifuged to obtain plasma. These plasma samples were then diluted in potassium acetate buffer (pH 4.0) and assayed for GAA activity using the 4-methylumbeliferyl-α-glucose (4-MUG) fluorogenic substrate. The measured GAA activity for individual samples at each time point was normalized to the 0 hr and expressed as % of initial activity. Data from 4 independent experiments were analyzed to obtain the mean (and standard deviation) and plotted versus time to assess the loss of enzyme activity over this time course.
Aliquots were collected at 0, 3 and 6 hrs and centrifuged to obtain plasma. These plasma samples were then diluted in potassium acetate buffer (pH 4.0) and assayed for GAA activity using the 4-methylumbeliferyl-α-glucose (4-MUG) fluorogenic substrate. The measured GAA activity for individual samples at each time point was normalized to the 0 hr and expressed as % of initial activity.
Based on human plasma PK data, these concentrations are readily obtainable in the clinic.

Data set [4] relates to GAA KO mice. The data set can be described thus: Myozyme tissue uptake (GAA activity, 4-MUG) in GAA KO mice with or without oral 1-DNJ-HCl. In kind it is in vivo. From the text: Enzymatic activity as determined using a 4-MUG fluorogenic substrate assay.
In data set [5] the test system is GAA KO mice. The data set can be described thus: Tissue glycogen reduction in GAA KO mice. In kind it is in vivo. Conditions: Myozyme 40 mg/kg IV every other week for 8 weeks, 1-DNJ-HCl 30 mg/kg oral 30 minutes prior where co-administered. The method, then:
Glycogen reduction with Myozyme™ alone was 93±1%, 41±4%, 69±3%, and 18±4%, in heart, diaphragm, soleus, and quadriceps, respectively, relative to untreated mice.
Twelve-week old male GAA KO mice were administered a single dose of Myozyme™ (40 mg/kg) via bolus tail vein injection every other week for 8 weeks. To prevent anaphylaxis, before the third and fourth Myozyme™ injection, diphenhydramine (10 mg/kg intraperitoneally) was administered 10 min before Myozyme™ injection. […] Mice were euthanized 14 days after the last Myozyme™ administration.
Glycogen levels in heart, diaphragm, soleus, and quadriceps were then measured. […] Briefly, homogenates were prepared by homogenizing ˜50 mg tissue for 3-5 seconds on ice with a microhomogenizer in 200 μL deionized water. Supernatants were heat denatured (99° C. for 10 min) to remove endogenous amyloglucosidase activity. Denatured lysates (4 μL) were then analyzed in duplicate by addition of 36 μL water with and without 10 μL of 800 U/mL of amyloglucosidase (Sigma Aldrich, St. Louis, Mo.) and incubated for 1 hour at 50° C. The reaction was stopped by inactivation at 100° C. for 10 min. Finally, 200 μL of glucose reagent (Sigma) was added absorbance read at 340 nm on Spectramax. A standard curve ranging from 5 μg/mL to 400 μg/mL Type III rabbit liver glycogen (Sigma) was run each day for conversion of absorbance to absolute glycogen units. Simultaneously, the amount of protein was determined in tissue homogenates using the Micro BCA Protein Assay (Pierce, Rockford, Ill.) following the manufacturer's instructions. The glycogen content of each sample was normalized to protein, and data were finally expressed as micrograms of glycogen per milligram of protein (μg/mg protein).

For data set [6] the following is noted: stored at 2 to 8° C.; patient instructions for Myozyme; cited from earlier work.
For data set [7] the following is noted: reported value; cited from earlier work.

Consider `OC[C@H]1NC[C@H](O)[C@@H](O)[C@@H]1O` [1-DNJ-HCl, 1-deoxynorjirimycin hydrochloride], for which the “increase of uptake of rhGAA in heart and diaphragm” value with GAA KO mouse (GAA KO mice, 100 mg/kg p.o., regimen including administration prior to rhGAA injection) is “approximately 2 fold”. Further, the “rhGAA uptake in the heart and diaphragm (GAA activity)” value in the data set with GAA KO mouse (GAA KO mouse, co-administered with rhGAA versus ERT monotherapy) was “increased”. For the same molecule, the “prevention of GAA denaturation and loss of enzyme activity” value in data set [1] is “can prevent GAA denaturation and loss of enzyme activity”. In addition, the “thermal stability of rhGAA (heat required to denature)” value in data set [2] (pH 7.4, 100 μM 1-DNJ-HCl, compared to formulation without the ASSC) is listed as “required significantly more heat to denature”. Moreover, the “GAA levels in patient-derived cell lines” value in data set [3] was “increased GAA levels alone and in combination with hrGAA”. The “rhGAA activity in whole blood with 1-DNJ-HCl” value on rhGAA (Myozyme™) (50 μM 1-DNJ-HCl, 37° C., throughout 24 hrs) is on record as “remained completely active”. Besides, the “stabilization of rhGAA in whole blood” value at rhGAA (Myozyme™) (high 1-DNJ-HCl concentrations (50 and 100 μM), range tested 0-100 μM) is “best for stabilizing rhGAA and preventing enzyme inactivation”. Moreover, the “effect of co-administration on Myozyme tissue uptake” value in the data set on GAA KO mice [4] (10, 100, 1000 mg/kg oral 1-DNJ-HCl with Myozyme 10 mg/kg IV, up to 7 days post injection) is listed as “dose-dependent increase”.

As to “Myozyme: alglucosidase alfa, human acid α-glucosidase produced by recombinant DNA technology in a Chinese hamster ovary cell line (Genzyme)”, in the data set with GAA KO mice [5], the “glycogen reduction in diaphragm relative to untreated mice” value amounted to 41±4%, the “glycogen reduction in heart relative to untreated mice” value amounted to 93±1%, the “glycogen reduction in quadriceps relative to untreated mice” value came to 18±4% and the “glycogen reduction in soleus relative to untreated mice” value is reported as 69±3%. Moreover, the “time the product is stable on storage” value in [6] is on record as “up to 24 hours”. The “plasma half-life of Myozyme (reported)” value in data set [7] is reported as “more than 3 hrs”. In addition, the “thermal stability of Myozyme alone” value in [2] (lysosomal pH (5.2) versus ER pH (7.4), no ASSC) is on record as “much more stable at lysosomal pH (5.2) than at ER pH (7.4)”. Besides, in the data set with GAA KO mice [4] (Myozyme 10 mg/kg IV once per week, 7 days post injection, all groups), the “Myozyme tissue uptake (as a measure of GAA activity)” value is recorded as “declined”.
